Test results: ChEMBL document CHEMBL4177627, “Discovery and evaluation of Cav3.1-selective T-type calcium channel blockers” (Bioorg Med Chem Lett, 2017)
Values after ≈ are worked out from the molar mass of the structure shown.

What was measured:
[1] = Solubility of the compound in aqueous medium at pH 7; format: physicochemical
[2] = Intrinsic clearance in rat liver microsomes assessed per mg protein; format: ADME, microsome; details: read-out: CLH
[3] = Plasma concentration in Wistar rat at 100 mg/kg, po measured after 1 hr; format: ADME, organism-based
[4] = Unbound plasma concentration in Wistar rat at 100 mg/kg, po measured after 1 hr; format: ADME, organism-based; details: in vivo
[5] = Drug level in Wistar rat brain at 100 mg/kg, po measured after 1 hr; format: ADME, organism-based; details: read-out: Drug uptake

| solubility ([1]; buffer) | solubility ([1]; aqueous medium, read-out: solubility) [µg/mL] | microsomal CLint [2] [µL/min/mg] | concentration at 1 h [3] [nM] | Cp(f) [4] [nM] | concentration at 1 h [5] [nM] | Compound |
| --- | --- | --- | --- | --- | --- | --- |
| Soluble |  |  |  |  |  | CCN(CC)CCc1c(C(=O)NCc2ccccc2OCC(F)(F)F)nn(-c2ccccc2)c1-c1ccccc1 |
| Soluble |  |  |  |  |  | O=C(NCc1ccccc1OCC(F)(F)F)c1nn(-c2ccccc2)c(-c2ccccc2)c1CCNC1CC1 |
|  | 429 (≈ 821 µM) | 377 | 810 | 4.9 | 80 | CCNCCc1c(C(=O)NCc2ccccc2OCC(F)(F)F)nn(-c2ccccc2)c1-c1ccccc1 |
